From patent publication US7998965B2, “Glutamate aggrecanase inhibitors” (Wyeth LLC, priority 2005, dated 2011) come the findings set out here.

Like-named read-outs stand apart in the source and are kept apart here. Bounds are passed on as bounds.

The target in assay [1] is T1, purified recombinant human Aggrecanase-1 (rAgg1) (Homo sapiens, UniProt O75173).
T1 sequence (O75173 213-837): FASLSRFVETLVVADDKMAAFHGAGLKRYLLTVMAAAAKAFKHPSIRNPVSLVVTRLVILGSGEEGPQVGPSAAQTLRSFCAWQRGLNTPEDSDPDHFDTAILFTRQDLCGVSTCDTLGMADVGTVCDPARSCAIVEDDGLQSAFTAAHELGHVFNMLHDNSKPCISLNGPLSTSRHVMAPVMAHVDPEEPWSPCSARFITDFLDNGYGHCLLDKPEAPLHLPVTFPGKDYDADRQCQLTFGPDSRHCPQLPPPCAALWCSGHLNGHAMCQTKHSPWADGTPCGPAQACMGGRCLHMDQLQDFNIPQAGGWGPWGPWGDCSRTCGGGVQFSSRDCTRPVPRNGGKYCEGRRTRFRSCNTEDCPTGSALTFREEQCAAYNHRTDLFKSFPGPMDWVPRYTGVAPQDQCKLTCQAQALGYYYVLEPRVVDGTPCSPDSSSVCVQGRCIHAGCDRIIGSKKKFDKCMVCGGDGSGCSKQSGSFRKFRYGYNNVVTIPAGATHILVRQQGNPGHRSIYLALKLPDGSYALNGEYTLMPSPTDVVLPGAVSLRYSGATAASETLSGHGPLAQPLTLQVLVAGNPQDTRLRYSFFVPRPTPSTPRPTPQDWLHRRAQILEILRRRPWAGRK
The assay can be described thus: In vitro fluorescence screen for Aggrecanase-1 inhibitors. Format: biochemical. The arrangement: Agg1 % at concentration: scale not given here. The conditions noted are these: for IC50: read-out: Agg1 IC50; for Ki: read-out: Ki Agg1.

The target in assay [2] is T2, purified recombinant human Aggrecanase-2 (Ag2t-Phe628-Strep) (Homo sapiens, UniProt Q9UNA0).
T2 construct: the form used is denoted as Ag2t-Phe628-Strep (MW=41,737)
T2 sequence (Q9UNA0 262-628): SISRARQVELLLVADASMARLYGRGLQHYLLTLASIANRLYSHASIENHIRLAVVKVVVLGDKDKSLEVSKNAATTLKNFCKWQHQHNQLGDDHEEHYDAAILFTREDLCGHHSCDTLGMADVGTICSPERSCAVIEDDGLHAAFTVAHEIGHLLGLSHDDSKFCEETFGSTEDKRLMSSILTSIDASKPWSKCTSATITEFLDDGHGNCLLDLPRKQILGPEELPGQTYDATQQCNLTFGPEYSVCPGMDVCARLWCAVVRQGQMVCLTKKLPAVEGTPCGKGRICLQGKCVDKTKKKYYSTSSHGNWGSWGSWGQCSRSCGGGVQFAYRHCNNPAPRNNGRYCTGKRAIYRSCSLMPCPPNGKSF
The experiment in a line: In vitro fluorescence screen for Aggrecanase-2 inhibitors. As to conditions: for IC50: read-out: Agg 2 IC50; for Ki: read-out: Ki Agg2. Format: biochemical.

Turning to `Cc1cccc(CNC(=O)[C@H](CCC(=O)O)NC(=O)c2ccc(-c3ccc(CO)cc3)cc2)c1` [Example 8PPPPPPP, N^2-{[4′-(hydroxymethyl)biphenyl-4-yl]carbonyl}-N-(3-methylbenzyl)-L-α-glutamine], the IC50 – broadly, the point on the concentration scale where inhibition reaches its midpoint – in assay [1] (Table 3) is 3120 nM. The inhibition at 16.7 µM in assay [2] (Table 3, at 16700 (nM), read-out: Agg 2 % at concentration) came to 48%.

With `CC(C)(Cc1ccccc1)NC(=O)[C@H](CCC(=O)O)NC(=O)c1ccc(-c2ccccc2)o1` [N-(1,1-dimethyl-2-phenylethyl)-N^2-(5-phenyl-2-furoyl)-L-α-glutamine], the “Agg1 % at concentration” value in assay [1] (Table 3, at 8300 (nM)) came out at 30%. Also, in assay [2] (Table 3, at 25000 (nM)), the “Agg 2 % at concentration” value is given as 28%.

`CC(C)(Cc1ccc(F)cc1)NC(=O)[C@H](CCC(=O)O)NC(=O)c1ccc(-c2ccc(Cl)cc2)cc1` [N^2-[(4′-chlorobiphenyl-4-yl)carbonyl]-N-[2-(4-fluorophenyl)-1,1-dimethylethyl]-L-α-glutamine]: in assay [1] (Table 3), the IC50 was less than 30 nM and the Ki (in general, a measure of affinity in units of concentration, obtained from inhibition or displacement) worked out at 6.7 nM. In assay [2] (Table 3), the IC50 is 59 nM and the Ki came to 54 nM.

Take `COc1cc(CNC(=O)[C@H](CCC(=O)O)NC(=O)c2cccc3c2-c2ccccc2C3)cc(OC)c1OC` [Example 8XXXX, N^2-(9H-fluoren-4-ylcarbonyl)-N^1-(3,4,5-trimethoxybenzyl)-L-α-glutamine]: the IC50 in assay [1] (Table 2) was more than 50000 nM; in assay [2] (Table 2) it was more than 200000 nM.

For the molecule `COc1cc(COc2cccc(-c3ccc(C(=O)N[C@@H](CCC(=O)O)C(=O)NCc4cc(OC)c(OC)c(OC)c4)cc3)c2)cc(OC)c1` [Example 15L, N^2-({3′-[(3,5-dimethoxybenzyl)oxy]biphenyl-4-yl}carbonyl)-N-(3,4,5-trimethoxybenzyl)-L-α-glutamine], the IC50 in assay [1] (Table 3) was 47 nM; in assay [2] (Table 3), 413 nM.

For `CN(C)C(=O)c1cccc(-c2ccc(C(=O)N[C@@H](CCC(=O)O)C(=O)NCC34CC5CC(CC(C5)C3)C4)cc2)c1` [Example 17W, N-(1-adamantylmethyl)-N^2-({3′-[(dimethylamino)carbonyl]biphenyl-4-yl}carbonyl)-L-α-glutamine], the IC50 in assay [1] (Table 2) was more than 25000 nM; in assay [2] (Table 2) it was approximately 67000 nM.

Take `CCc1ccc(-c2ccc(C(=O)N[C@@H](CCC(=O)O)C(=O)NCc3cc(OC)c(OC)c(OC)c3)cc2)cc1` [Example 17E, N^2-[(4′-ethylbiphenyl-4-yl)carbonyl]-N-(3,4,5-trimethoxybenzyl)-L-α-glutamine]: the values for the IC50 in assay [1] (Table 2) and in assay [2] (Table 2) were 251 nM and 1040 nM, respectively.

As to `Nc1cccc(C#Cc2ccc(C(=O)N[C@@H](CCC(=O)O)C(=O)NCc3ccccc3)cc2)c1` [Example 12J, N^2-{4-[(3-aminophenyl)ethynyl]benzoyl}-N-benzyl-L-α-glutamine], the IC50 in assay [1] (Table 2) was approximately 8000 nM; in assay [2] (Table 2) it was approximately 22000 nM.

As to `COc1ccc(-c2ccc(C(=O)N[C@@H](CCC(=O)O)C(=O)NC(C)(C)Cc3ccccc3)cc2)c(OC)c1` [Example 17Q, N^2-[(2′,4′-dimethoxybiphenyl-4-yl)carbonyl]-N-(1,1-dimethyl-2-phenylethyl)-L-α-glutamine], the results for the IC50 in assay [1] (Table 2) and in assay [2] (Table 2) were approximately 13000 nM and more than 30000 nM, respectively.

Turning to `COc1cc(COc2ccc(-c3ccc(C(=O)N[C@@H](CCC(=O)O)C(=O)NCCCCCCO)cc3)cc2)cc(OC)c1` [Example 19G, N^2-({4′-[(3,5-dimethoxybenzyl)oxy]biphenyl-4-yl}carbonyl)-N-(6-hydroxyhexyl)-L-α-glutamine], the IC50 in assay [1] (Table 2) amounted to 270 nM; in assay [2] (Table 2), 146 nM.

Regarding `CC(C)(Cc1ccccc1)NC(=O)[C@H](CCC(=O)O)NC(=O)c1ccc(-c2cc(F)cc(F)c2)cc1` [Example 8HHHHHHH, N^2-[(3′,5′-difluorobiphenyl-4-yl)carbonyl]-N-(1,1-dimethyl-2-phenylethyl)-L-α-glutamine], the values for the IC50 in assay [1] (Table 3) and in assay [2] (Table 3) were 50 nM and 180 nM, respectively.

Regarding `CC(C)(Cc1ccccc1)NC(=O)[C@H](CCC(=O)O)NC(=O)c1ccc(-c2ccc(COc3ccc4c(c3)OCO4)cc2)cc1` [Example 15P, N^2-({4′-[(1,3-benzodioxol-5-yloxy)methyl]biphenyl-4-yl}carbonyl)-N-(1,1-dimethyl-2-phenylethyl)-L-α-glutamine], the IC50 in assay [1] (Table 3) was less than 30 nM; in assay [2] (Table 3) it was 255 nM.

`COc1cc(OC)cc(OCc2ccc(-c3ccc(C(=O)N[C@@H](CCC(=O)O)C(=O)NCc4cccc(C)c4)cc3)cc2)c1` [Example 15Q, N^2-({4′-[(3,5-dimethoxyphenoxy)methyl]biphenyl-4-yl}carbonyl)-N-(3-methylbenzyl)-L-α-glutamine]: the IC50 in assay [1] (Table 3) was 158 nM; in assay [2] (Table 3), 1940 nM.

`O=C(O)CC[C@H](NC(=O)c1ccc(-c2ccc(OCc3ccccc3)cc2)cc1)C(=O)NCc1ccccc1` [Example 15J, N-benzyl-N^2-{[4′-(benzyloxy)biphenyl-4-yl]carbonyl}-L-α-glutamine]: the IC50 in assay [1] (Table 2) was 510 nM; in assay [2] (Table 2), approximately 3130 nM.

Regarding `Cc1cccc(CNC(=O)[C@H](CCC(=O)O)NC(=O)C2c3ccccc3-c3ccccc32)c1` [Example 8EEEEE, N^2-(9H-fluoren-9-ylcarbonyl)-N^1-(3-methylbenzyl)-L-α-glutamine], the IC50 in assay [1] (Table 2) is more than 50000 nM; in assay [2] (Table 2), more than 200000 nM.

Regarding `Cc1ccc(-c2ccc(C(=O)N[C@@H](CCC(=O)O)C(=O)NC(C)(C)Cc3ccccc3)cc2)cc1F` [Example 17L, N-(1,1-dimethyl-2-phenylethyl)-N^2-[(3′-fluoro-4′-methylbiphenyl-4-yl)carbonyl]-L-α-glutamine], the IC50 in assay [1] (Table 2) was determined as 133 nM; in assay [2] (Table 2), 226 nM.

As for `CC(C)(Cc1ccccc1)NC(=O)[C@H](CCC(=O)O)NC(=O)c1cccc(-c2ccc(Cl)s2)c1` [N^2-[3-(5-chloro-2-thienyl)benzoyl]-N-(1,1-dimethyl-2-phenylethyl)-L-α-glutamine], the concentration for half-maximal inhibition (IC50) is more than 900 nM in assay [1] (Table 3) and more than 8300 nM in assay [2] (Table 3).

Consider `CC(C)(Cc1ccc(F)cc1)NC(=O)[C@H](CCC(=O)O)NC(=O)c1ccc(-c2cccc(Cl)c2)cc1` [N^2-[(3′-chlorobiphenyl-4-yl)carbonyl]-N-[2-(4-fluorophenyl)-1,1-dimethylethyl]-L-α-glutamine], for which the IC50 in assay [1] (Table 3) is less than 30 nM; in assay [2] (Table 3) it was 200 nM. The Ki in assay [1] (Table 3) was 8.8 nM; in assay [2] (Table 3) it was 157 nM.

In the case of `COc1cccc(COc2ccc(-c3ccc(C(=O)N[C@@H](CCC(=O)O)C(=O)NCc4cc(OC)c(OC)c(OC)c4)cc3)cc2)c1` [Example 19H, N^2-({4′-[(3-methoxybenzyl)oxy]biphenyl-4-yl}carbonyl)-N-(3,4,5-trimethoxybenzyl)-L-α-glutamine], the IC50 in assay [1] (Table 2) stood at 69 nM; in assay [2] (Table 2), 158 nM.

With `CC(C)(Cc1ccc(Cl)cc1)NC(=O)[C@H](CCC(=O)O)NC(=O)c1ccc(-c2nccs2)cc1` [N-[2-(4-chlorophenyl)-1,1-dimethylethyl]-N^2-[4-(1,3-thiazol-2-yl)benzoyl]-L-α-glutamine], the IC50 in assay [1] (Table 3) came out at 1200 nM. In addition, the inhibition at 2.5 µM in assay [2] (read-out: Agg 2 % at concentration) amounted to 50%.

As for `COc1ccc(CCN(C)C(=O)[C@H](CCC(=O)O)NC(=O)c2ccc3c(c2)Cc2ccccc2-3)cc1OC` [Example 8IIIIII, N-[2-(3,4-dimethoxyphenyl)ethyl]-N^2-(9H-fluoren-2-ylcarbonyl)-N-methyl-L-α-glutamine], the IC50 in assay [1] (Table 2) worked out at 2900 nM; in assay [2] (Table 2), 11900 nM.

Regarding `O=C(O)CC[C@H](NC(=O)c1ccc2c(c1)C(=O)c1ccccc1-2)C(=O)NCCCCCCO` [Example 8XXXXX, N^1-(6-hydroxyhexyl)-N^2-[(9-oxo-9H-fluoren-2-yl)carbonyl]-L-α-glutamine], the IC50 in assay [1] (Table 2) amounted to 246 nM; in assay [2] (Table 2), 1450 nM.

On to `CC(C)(Cc1ccccc1)NC(=O)[C@H](CCC(=O)O)NC(=O)c1ccc(-c2ccc(-c3ccccc3)cc2)cc1` [Example 17U, N-(1,1-dimethyl-2-phenylethyl)-N^2-(1,1′:4′,1″-terphenyl-4-ylcarbonyl)-L-α-glutamine], for which the IC50 was 1800 nM in assay [1] (Table 2) and approximately 6700 nM in assay [2] (Table 2).

Regarding `CC(C)(Cc1ccc(Cl)cc1)NC(=O)[C@H](CCC(=O)O)NC(=O)c1ccc(-c2ccc(C=O)s2)cc1` [N-[2-(4-chlorophenyl)-1,1-dimethylethyl]-N^2-[4-(5-formyl-2-thienyl)benzoyl]-L-α-glutamine], the IC50 in assay [1] (Table 3) is less than 30 nM; in assay [2] (Table 3) it was 900 nM.
